# According to patent US20260115214A1, “APPLICATION OF INHIBITORS OF GLYCOLYTIC PATHWAY IN PREPARATION OF DRUGS FOR PREVENTING AND TREATING PORCINE REPRODUCTIVE AND RESPIRATORY SYNDROME VIRUS (PRRSV) INFECTION” (NANJING AGRICULTURAL UNIVERSITY, priority 2020, published 2026):
# Tests used:
# [1] = tested on: PRRSV; experiment: PRRSV replication in infected Marc-145 cells treated with glycolysis inhibitors (Western blotting, TCID50, RT-PCR); type: cell-based, porcine reproductive and respiratory syndrome virus; settings: for virus titer (TCID50) in cell culture medium / PRRSV ORF7 mRNA level in the cells (RT-PCR): 36 h, 2-DG 0-15 μM; for virus titer (TCID50) in cell culture medium / PRRSV ORF7 mRNA level in the cells (RT-PCR) / PRRSV N protein expression level (Western blotting): SO 0, 25, 50 mM; for PRRSV ORF7 mRNA level in the cells (RT-PCR) / PRRSV N protein expression level (Western blotting): Gal 10, 50, 100 μM; for PRRSV N protein expression level (Western blotting): 36 h after infection
# Method: Highly pathogenic PRRSV strains BB0907 and Marc-145 cells are maintained in the laboratory and are conventional strains and cells disclosed in the prior art.
# Marc-145 cells were cultured in a 96-well plate. When the cell confluence reached 70%, a nutrient solution was pipetted, and the cell surface was washed 3 times with PBS. Ten-fold serial dilutions of PRRSV were added to the cells and incubated at 37° C. for 1 h. A medium was replaced with fresh 2% FBS-DMEM. Virus titers were determined 5 days post inoculation (dpi) by endpoint dilution assay. 50% tissue culture infectious dose (TCID50) was calculated by a Reed-Muench method.
# Cellular RNA was extracted following operating instructions of an OMEGA RNA virus extraction kit. After reverse transcription into cDNA, […].
# By a 2-ΔΔCt method, the relative content of mRNA in each gene in the samples was calculated by a CT value.
# (§1) To explore the effect of glycolysis in cells on PRRSV replication, an inhibitor of glycolytic pathway, 2-DG, was used to inhibit glycolysis in cells. […] After the Marc-145 cells were infected with PRRSV (0.01 MOI), the Marc-145 cells were treated with 0 μM, 2.5 μM, 5 μM, 10 μM and 15 μM of 2-DG respectively. After 36 hours, the inhibition efficiency of the 2-DG on PRRSV on the Marc-145 cells was detected by Western blotting.
# To further verify the effect of glycolysis on PRRSV, PRRSV-infected Marc-145 cells were treated with a key enzyme in the last step of glycolysis, that is, an inhibitor of lactate dehydrogenase, sodium oxamate (SO). A control group was set up to detect whether there was a difference in the level of virus replication. […] After the Marc-145 cells were infected with PRRSV (0.01 MOI), the Marc-145 cells were treated with 0 mM, 25 mM and 50 mM of SO. 36 h after infection, the PRRSV N protein expression level, virus titer and PRRSV ORF7 mRNA level were detected by Western blotting, TCID50 and RT-PCR respectively.
# PRRSV-infected Marc-145 cells were treated with an inhibitor of lactate dehydrogenase (Galloflavin, Gal), and a control group was set up to detect differences in viral replication levels. […] After Marc-145 cells were infected with PRRSV (0.01 MOI), the Marc-145 cells were treated with 10 μM, 50 μM and 100 μM of Gal. […] In addition, A PRRSV ORF7 mRNA level and the virus titer were detected by TCID50 and RT-PCR.
# [2] = tested on: PRRSV BB0907 strain; experiment: Treatment of PRRSV-infected piglets by oral administration; type: in vivo; settings: for microscopic lung lesion scores: day 14, compared with challenge control group, P<0.01; for gross lung lesion scores: day 14, compared with positive control group, sodium oxamate P<0.01, Galloflavin P<0.001; for PRRSV viral load in the lungs / histopathological changes of lungs / gross lung lesions (observation) / clinical symptoms (observation) / clinical symptoms compared with the positive control group / weight growth rate / virus content in the serum (PRRSV genome copy number, qRT-PCR): oral daily, sodium oxamate 7 mg or Galloflavin 10 μg; for PRRSV viral load in the lungs: 14 dpi, P<0.0001; for histopathological changes of lungs: day 14; for gross lung lesions (observation): day 14, compared with the positive control group; for clinical symptoms (observation): days 0-14; for clinical symptoms compared with the positive control group: days 0-14, P<0.001; for weight growth rate: days 0-14, P>0.05 vs negative control; for virus content in the serum (PRRSV genome copy number, qRT-PCR): serum at 1, 4, 7, 10, 14 dpi
# [3] = tested on: Marc-145 cells; type: cell-based; settings: monkey, 48 h
# Method: Marc-145 cells were cultured in 10% FBS-DMEM containing different concentrations of sodium oxamate (1-250 mM), Galloflavin (0-2.5 mM) and 2-deoxy-D-glucose (0-20 μM), and incubated at 37° C. for 48 h. Cell viability was detected with an enhanced CCK8 kit. DMSO was used as a negative control.
# as §1
# To further verify the effect of glycolysis on PRRSV, PRRSV-infected Marc-145 cells were treated with a key enzyme in the last step of glycolysis, that is, an inhibitor of lactate dehydrogenase, sodium oxamate (SO). […] 36 h after infection, the PRRSV N protein expression level, virus titer and PRRSV ORF7 mRNA level were detected by Western blotting, TCID50 and RT-PCR respectively.
# PRRSV-infected Marc-145 cells were treated with an inhibitor of lactate dehydrogenase (Galloflavin, Gal), and a control group was set up to detect differences in viral replication levels. […] In addition, A PRRSV ORF7 mRNA level and the virus titer were detected by TCID50 and RT-PCR.
SMILES,level of PRRSV replication (figure legend) [1],virus titer (TCID50) in cell culture medium ([1]; PRRSV 0.01 MOI),PRRSV ORF7 mRNA level in the cells (RT-PCR) ([1]; PRRSV 0.01 MOI),"inhibition at 5 µM ([1]; Porcine reproductive and respiratory syndrome virus, MARC145, concentration of 5 μM, PRRSV 0.01 MOI, after 36 hours, read-out: inhibition efficiency against PRRSV (Western blotting))",PRRSV N protein expression level (Western blotting) ([1]; PRRSV 0.01 MOI),microscopic lung lesion scores [2],gross lung lesion scores [2],PRRSV viral load in the lungs [2],histopathological changes of lungs [2],gross lung lesions (observation) [2],clinical symptoms (observation) [2],clinical symptoms compared with the positive control group [2],weight growth rate [2],"virus content in the serum (PRRSV genome copy number, qRT-PCR) [2]",concentration at which the substance starts to be toxic to the cells (CCK8) [3]
"O=CC[C@@H](O)[C@H](O)[C@H](O)CO [2-DG, 2-deoxy-D-glucose]",reduces the level of PRRSV replication,decreased in a dose-dependent manner,decreased in a dose-dependent manner,~50%,,,,,,,,,,,
O=c1oc2c(cc1O)oc(=O)c1cc(O)c(O)c(O)c12 [Galloflavin],reduces the level of PRRSV replication,,decrease the mRNA level of PRRSV in a dose-dependent manner,,decrease PRRSV replication in the cells in a dose-dependent manner,significantly lower than those of the challenge control group,more significantly lower,significantly lower than that in the positive control group,"significantly alleviated, similar to those in the negative control group",significantly minor lung lesions,no obvious clinical symptoms,significantly relieved clinical symptoms,approximate to that of the negative control group,significantly lower than that in the positive control group,
NC(=O)C(=O)[O-].[Na+] [sodium oxamate],reduces the level of PRRSV replication,reduce PRRSV replication in the cells in a dose-dependent manner,reduce PRRSV replication in the cells in a dose-dependent manner,,reduce PRRSV replication in the cells in a dose-dependent manner,significantly lower than those of the challenge control group,significantly lower,significantly lower than that in the positive control group,mild thickened alveolar septa and inflammatory cell infiltration,significantly minor lung lesions,no obvious clinical symptoms,significantly relieved clinical symptoms,approximate to that of the negative control group,significantly lower than that in the positive control group,100000 µM
